From patent US5302602A, “Tricyclic thromboxane A2 antagonists” (Kyowa Hakko Kogyo Co., Ltd., priority 1987, dated 1994) come the findings set out here.

Read-outs that look alike come from different tables or passages of the source.

Data set [1] deals with guinea pig platelets (TXA2/prostaglandin H2 receptor). Nature of the data set: Test on anti-platelet activity (TXA2 antagonizing test): inhibition of U-46619-induced platelet aggregation. The note with it: Cavia porcellus, 0.05 h; minimum concentration inhibiting U-46619 (0.5-1 μM)-induced platelet aggregation by 30% or more; guinea pig PRP; read-out: TXA2 Antagonizing Activity (MEC), minimum effective concentration. The data set is classed as cell-based. As to the method: Using guinea pig platelets influence of the compounds in accordance with the present invention on platelet aggregation induced by U-46619 (9,11-dideoxy-9α,11a-methanoepoxyprostaglandin F2 α; manufactured by Cayman Chemica Co., Ltd.) which is a TXA2 /prostaglandin H2 receptor stimulant was examined.
Male guinea pig (Hartley strain; body weight, 300 to 600 g) was anesthesized by intraperitoneal administration of sodium pentobarbital (30 mg/kg) and blood was collected from the descending aorta of the abdomen with a 1/10 volume of sodium citrate. By centrifugation (KC-70: manufactured by Kubota Co., Ltd.) at 800 rpm for 10 minutes, platelet rich plasma (PRP) was collected. Platelet aggregation induced by U-46619 (0.5-1 μM) was determined by photometry [Born, G.V.R. et al., Nature (London), 194, 927-929 (1962)]. A test compound was pretreated 3 minutes prior to aggregation induction and ability of inhibiting aggregation was measured. The minimum concentration for inhibiting platelet aggregation by 30% or more was defined as the minimum effective concentration (MEC) of the test compound.

The test system of data set [2] is homologous passive cutaneous anaphylaxis (PCA). Nature of the data set: Antiallergic activity test: homologous passive cutaneous anaphylaxis (PCA) test for 48 hours using rats. It is filed as in vivo, rat (Wistar strain, male). The note with it: Rattus norvegicus, po, minimum dose with at least one of 3 rats showing PCA inhibition rate 50% or more, read-out: Antiallergic Activity (MED), minimum effective dose. As to the method:
Antiallergic activity was examined in accordance with the passive cutaneous anaphylaxis (PCA) test using rats. As test animals, Wistar strain male rats weighing 180 to 220 g were used to collect antiserum and for the PCA test, Wistar strain male rats weighing 120 to 140 g were used.
Anti-EWA rat serum was prepared according to the method of Stotland and Share [Can. J. Physiol. Pharmacol., 52, 1114 (1974)]. That is, 1 mg of EWA was mixed with 20 mg of aluminum hydroxide gel and 0.5 ml of pertussis-diphtberia-tetanus mixed vaccine. The mixture was subcutaneously administered to the rat paw in 4 portions. Fourteen days after, blood was collected from the carotid artery and the serum was isolated and stored in a state frozen at -80° C. Titer of this antiserum to homologous PCA for 48 hours was 1:32.
Three rats were used per group. After the hair at the back was cut, 0.05 ml each of anti-EWA rat serum diluted to 8-fold with physiological saline was intracutaneously injected to each rat at the back in 2 places to passively sensitize the rat. A test compound or its solution (physiological saline solution or CMC solution) was orally administered 47 hours after and 0.5 ml/100 g of 1% Evans Blue physiological saline containing 2 mg of antigen EWA was then intravenously administered to the tail vein an hour after the administration. Thirty minutes later, the animal was bled to death. The skin was peeled off and a leaked dye amount at the blue dyed portion was measured according to the method of Katayama et al. [Microbiol. Immunol., 22, 89 (1978)]. That is, the blue dyed portion was cut off with scissors, put into a test tube charged with 1 ml of 1 N potassium hydroxide and incubated at 37° C. for 24 hours. After 9 ml of a mixture of 0.6 N phosphate:acetone (5:13) was added to the system, the mixture was shaken followed by centrifugation at 2500 rpm for 10 minutes. The absorbancy of the supernatant at 620 nm was measured and the leaked dye amount was quantitatively determined by comparison with a calibration curve previously prepared. A value of one rat was obtained from a mean value of the two portions and an inhibition rate-of each rat was calculated according to the following equation. [formula]
The case showing that the inhibition rate is 50% or more is judged to be positive in the PCA inhibition activity and the minimum dose in which at least one out of 3 rats was recognized to be positive was defined as the minimum effective dose (MED) of the test compound.

Data set [3] deals with mice. Nature of the data set: Acute toxicity test. It is filed as in vivo. The note with it: mortality observed for seven days. The procedure: Using three dd strain male mice weighing 20±1 g, a test compound was orally (po; 300 mg/kg) or intraperitoneally (ip; 100 mg/kg) administered. MLD (the minimum lethal dose) was determined by observing the mortality for seven days after administration.

For data set [4], the target named is T1, TXA2 receptor (Cavia porcellus, UniProt A0A286Y4I8).
T1 construct: To a washed platelet suspension (1×10^8 platelets) of guinea pig; endogenous in cells; host or cells: washed guinea pig platelets
T1 sequence (A0A286Y4I8 1-347): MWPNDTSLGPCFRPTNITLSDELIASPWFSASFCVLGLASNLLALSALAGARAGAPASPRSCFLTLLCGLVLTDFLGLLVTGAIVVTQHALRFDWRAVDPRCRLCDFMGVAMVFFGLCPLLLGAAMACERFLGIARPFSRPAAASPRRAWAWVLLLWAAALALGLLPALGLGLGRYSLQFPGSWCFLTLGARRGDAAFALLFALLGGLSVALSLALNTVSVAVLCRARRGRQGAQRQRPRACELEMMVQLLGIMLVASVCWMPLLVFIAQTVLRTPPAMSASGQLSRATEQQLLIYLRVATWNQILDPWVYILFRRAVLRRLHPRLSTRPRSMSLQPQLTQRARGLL
Nature of the data set: Binding study using 3H-U46619 (TXA2 receptor binding activities test). On the set-up: species or system guinea pig. The note with it: for inhibition at 1 µM: 20 min, read-out: % Inhibition (3H-U46619 binding); for inhibitory activity (TXA2 receptor binding), in words: statement in words on Table 4. The procedure: Receptor binding was determined by a modified method of Kattelman et al. (Thrombosis Research, 41, 471 (1986)].
To a washed platelet suspension (1×10^8 platelets) of guinea pig were added 12 nM of tritium-labeled U46619 (^3 H-U46619; NEN Co., Ltd.) and a test compound (final concentration: 1 μM) solution. After keeping at 37° C. for 20 minutes, the mixture was rapidly filtered through a glass fiber filter paper (GF/C; Whatman). Immediately, the filter paper was washed 5 times with 3 ml of ice-cold 50 mM Tris-hydroxymethylaminomethane buffer (containing 100 mM sodium chloride). The glass fiber filter was transferred to a vial and a scintillator (Ex-H; manufactured by Wako Pure Chemical Industries Co., Ltd.) was added thereto. The radioactivity was determined with a liquid scintillation counter.
It is already known that ^3 H-U46619 is capable of binding with TXA2 receptor (see the publication supra). An inhibitory activity of the test compound against this binding means an ability of binding with the TXA2 receptor. It is also known that a good relationship exists between this binding activity and the anti-platelet activity (TXA2 antagonizing test).
An inhibitory activity (binding activity) of the test compound was calculated by the following equation. [formula]
Amount of the total binding is an amount of ^3 H-U46619-bound radioactivity in the absence of a test compound.
The amount of non-specific binding is used to mean an amount of ^3 H-U46619-bound radioactivity in the presence of 10 μM U-46619.
The amount bound in the presence of a test compound is an amount of ^3 H-U46619-bound radioactivity in the presence of a test compound in various concentrations.

The target of data set [5] is T2, histamine H1 receptor (Cavia porcellus, UniProt P31389).
T2 construct: from tissue; host or cells: guinea pig cerebellum membranes
T2 sequence (P31389 whole entry): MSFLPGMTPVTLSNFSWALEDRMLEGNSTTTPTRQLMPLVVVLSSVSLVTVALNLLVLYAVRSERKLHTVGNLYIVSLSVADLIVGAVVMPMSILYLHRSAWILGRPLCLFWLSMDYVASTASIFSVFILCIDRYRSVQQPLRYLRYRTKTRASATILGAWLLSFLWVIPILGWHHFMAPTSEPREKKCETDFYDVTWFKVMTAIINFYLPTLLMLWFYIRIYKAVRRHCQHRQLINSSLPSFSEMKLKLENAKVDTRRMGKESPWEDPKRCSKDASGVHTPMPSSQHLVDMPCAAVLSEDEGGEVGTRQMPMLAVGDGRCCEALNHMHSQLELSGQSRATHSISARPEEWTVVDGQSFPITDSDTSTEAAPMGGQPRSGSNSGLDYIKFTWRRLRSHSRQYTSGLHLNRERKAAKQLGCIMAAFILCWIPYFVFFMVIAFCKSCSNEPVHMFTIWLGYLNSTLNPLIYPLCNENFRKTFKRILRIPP
Nature of the data set: Binding study using 3H-pyrilamine (histamine H1 receptor binding). On the set-up: species or system guinea pig. The note with it: read-out: (%) Inhibition (3H-pyrilamine binding). As to the method: Receptor binding was determined by the method of chang et al. [J. Neurochem., 32, 1953 (1979)].
The cerebellum of guinea pig was suspended in a 40-fold amount (V/W) of chilled 50 mM phosphate buffer (pH 7.5) with Polytron Homogenizer (Kinematica Co., Ltd.). The suspension was centrifuged (35,500×g, 10 minutes). The resulting precipitates were resuspended in an equal amount of fresh buffer followed by centrifugation. A 100-fold amount (V/W) of chilled buffer was added to the final precipitates.
To 1 ml of the membrane suspension adjusted as described above were added 50 μl of tritium-labeled pyrilamine (^3 H-pyrilamine; NEN Co., Ltd.) and 50 μl of a test compound. The mixture was allowed to stand at 25° C. for 30 minutes, 4 ml of chilled buffer was added thereto. The mixture was rapidly filtered through a glass fiber filter (GF/C; Whatman). The filter paper was further washed three times with 5 ml of buffer. Hereafter procedures were performed in a manner similar to the TXA2 receptor binding test to determine radioactivity.
An inhibitory activity of the test compound against H1 receptor was calculated by the following equation. [formula]
Amount of the total binding is an amount of ^3 H-pyrilamine-bound radioactivity in the absence of a test compound.
The amount of non-specific binding is an amount of ^3 H-pyrilamine-bound radioactivity in the presence of 3 μM Astemizole (manufactured by Janesen Pharmaceutics).
The amount bound in the presence of a test compound is an amount of ^3 H-pyrilamine-bound radioactivity in the presence of a test compound in various concentrations.

The mark [6] stands for this setting: test compound 1 μM, 12 nM 3H-U46619, washed guinea pig platelets, 37° C., 20 minutes.

On to `O=C(O)c1ccc2c(c1)/C(=C/CN1CCN(CC=Cc3ccccc3)CC1)c1ccccc1CO2` [E-75b', (E)-11-[3-(4-Cinnamyl-1-piperazinyl)ethylidene]-6,11-dihydrodibenz[b,e]oxepin-2-carboxylic acid.difumarate-0.5 hydrate], for which the minimal effective concentration in data set [1] was 0.1 µg/mL. Further, in data set [2], the minimal effective dose is 100 mg/kg. Besides, the entries for the “Acute Toxicity (MLD), minimum lethal dose” value (“Acute Toxicity (MLD)” below) in data set [3] (ip) and in data set [3] (po) were over 100 mg/kg and over 300 mg/kg, respectively. Besides, the inhibition at 1 µM in data set [4] (setting [6]) came to 85%.

With `O=C(O)c1ccc2c(c1)/C(=C/CN1CCN(c3ccc(F)cc3)CC1)c1ccccc1CO2` [Compound E-73b, (E)-11-[2-[4-(4-Fluorophenyl)-1-piperazinyl]ethylidene]-6,11-dihydrodibenz[b,e]oxepin-2-carboxylic acid.isopropanol. monohydrate], the minimal effective concentration in data set [1] amounted to 10 µg/mL. Besides, the minimal effective dose in data set [2] is over 100 mg/kg. Moreover, the “Acute Toxicity (MLD)” value in data set [3] (ip) is over 100 mg/kg; in data set [3] (po) it was over 300 mg/kg. Further, the inhibition at 1 µM in data set [4] (setting [6]) came out at 85%.

As to `CN(C)CCSC1c2ccccc2COc2ccc(C(=O)O)cc21` (stereo not drawn) [Compound (A), reference compound], the inhibition at 1 µM in data set [4] (setting [6]) was -4%; in data set [5] it was 88%. The “inhibitory activity (TXA2 receptor binding), in words” value (from here on “inhibitory activity”) in data set [4] is “not observed”.

In the case of `O=C(O)c1ccc2c(c1)C(SCCN1CCC(c3ccccc3)CC1)c1ccccc1CO2` (stereo not drawn) [Compound 37b, 11-[2-(4-Phenyl-1-piperidinyl)ethyl]thio-6,11-dihydrodibenz[b,e]oxepin-2-carboxylic acid], the minimal effective concentration in data set [1] was 10 µg/mL. Moreover, the minimal effective dose in data set [2] amounted to 1 mg/kg. In addition, the “Acute Toxicity (MLD)” value in data set [3] (ip) is over 100 mg/kg; in data set [3] (po), over 300 mg/kg.

Consider `COc1ccccc1N1CCN(CCSC2c3ccccc3COc3ccc(C(=O)O)cc32)CC1` (stereo not drawn) [Compound 9b], for which the minimal effective concentration in data set [1] came to 1 µg/mL. Also, the minimal effective dose in data set [2] was 10 mg/kg. Moreover, the “Acute Toxicity (MLD)” value is over 100 mg/kg in data set [3] (ip) and over 300 mg/kg in data set [3] (po).

Regarding `O=C(O)c1ccc2c(c1)C(SCCN1CCN(c3ccc(F)cc3)CC1)c1ccccc1CO2` (stereo not drawn) [Compound 8b], in data set [1], the minimal effective concentration turned out to be 1 µg/mL. In addition, the minimal effective dose in data set [2] is 10 mg/kg. Also, the “Acute Toxicity (MLD)” value in data set [3] (ip) is over 100 mg/kg; in data set [3] (po), over 300 mg/kg.

Regarding `O=C(O)c1ccc2c(c1)/C(=C/CN1CCN(S(=O)(=O)c3cccs3)CC1)c1ccccc1CO2` [Compound E-79b, (E)-11-[2-[4-(2-Thienylsulfonyl)-1-piperazinyl]ethylidene]-6,11-dihydrodibenz[b,e]oxepin-2-carboxylic acid.0.5 hydrate], the minimal effective concentration in data set [1] was 30 µg/mL. In addition, the minimal effective dose in data set [2] is over 100 mg/kg. Further, the “Acute Toxicity (MLD)” value in data set [3] (ip) is given as over 100 mg/kg; in data set [3] (po) it was over 300 mg/kg. Further, the inhibition at 1 µM in data set [4] (setting [6]) is 77%.

For the compound `CN(C)CCC=C1c2ccccc2COc2ccc(CC(=O)O)cc21` [Compound (B), reference compound], the inhibition at 1 µM in data set [4] (setting [6]) is 1%. Further, in data set [4], the “inhibitory activity” value is “not observed”.

With `CN1CCC(=C2c3ccccc3CC(=O)c3sccc32)CC1` [Ketotifen, reference compound], in data set [4], the inhibition at 1 µM is -3% and the “inhibitory activity” value was “not observed”.

For the compound `O=C(O)c1ccc2c(c1)/C(=C/CN1CCN(S(=O)(=O)C=Cc3ccccc3)CC1)c1ccccc1CO2` [Compound E-78b, (E)-11-[2-[4-(Styrylsulfonyl)-1-piperazinyl]ethylidene]-6,11-dihydrodibenz[b,e]oxepin-2-carboxylic acid-0.1 iso-propanol.0.1 hydrate], the minimal effective concentration in data set [1] was 3 µg/mL. For the same compound, in data set [2], the minimal effective dose was over 100 mg/kg. For the same compound, the “Acute Toxicity (MLD)” value is reported as over 100 mg/kg in data set [3] (ip) and over 300 mg/kg in data set [3] (po). Moreover, the inhibition at 1 µM in data set [4] (setting [6]) amounted to 83%.
